Test results reported in patent US20260206761A1, “HETEROARYL-TRIAZOLE COMPOUNDS AS PESTICIDES” (Bayer Aktiengesellschaft, priority 2019, published 2026).

Experiments:
Assay type in all cases: in vivo
[1] = system: Rhipicephalus microplus larvae (strain Parkhurst, resistant against synthetic pyrethroids); experiment: Rhipicephalus (Boophilus) microplus in-vitro contact test, larval cattle tick; conditions: after 48 hours, read-out: activity (efficacy: larvae dead or moribund); for pest or weed control at 100 g/ha: application rate 1 pg/cm^2 (=100 g/ha); for pest or weed control at 500 g/ha: application rate 5 pg/cm^2 (=500 g/ha)
Experimental: Rhipicephalus (Boophilus) microplus—In-Vitro Contact Tests Larval Cattle Tick (Strain Parkhurst. Resistant Against Synthetic Pyrethroids)
(§1) 9 mg compound is solved in 1 mL acetone and diluted with acetone to the desired concentration. 250 μL of the test solution is filled in 25 mL glass test tubes and homogeneously distributed on the inner walls by rotation and tilting on a shaking device (2 h at 30 rpm). With a compound concentration of 900 ppm, an inner surface of 44.7 cm^2 and a homogeneous distribution, a dose of 5 μg/cm^2 is achieved.
After the solvent has evaporated, each test tube is filled with 20-50 cattle tick larvae (Rhipicephalus microplus), closed with a perforated lid and incubated in a horizontal position at 85% relative humidity and 27° C. in an incubator. After 48 hours efficacy is determined. The larvae are patted on the ground of the tubes and negative geotactic behaviour is recorded.
An efficacy of 100% means all larvae are dead or moribund; 0% means no larvae are dead or moribund.

[2] = system: adult engorged female ticks (Rhipicephalus microplus); experiment: Rhipicephalus (Boophilus) microplus injection test; conditions: 168 h, egg deposition after 7 days, read-out: activity (efficacy: infertile eggs); for pest or weed control at 4 pg: application rate 4 pg/animal; for pest or weed control at 0.02 mg: application rate 20 μg/animal
Experimental: Rhipicephalus (Boophilus) microplus—Injection Test
(§2) Solvent: dimethyl sulfoxide
To produce a suitable preparation of active compound, 10 mg of active compound are dissolved in 0.5 mL solvent, and the concentrate is diluted with solvent to the desired concentration.
Five adult engorged female ticks (Rhipicephalus microplus) are injected with 1 μL compound solution into the abdomen. The ticks are transferred into replica plates and incubated in a climate chamber.
After 7 days egg deposition of fertile eggs is monitored. Eggs where fertility is not visible are stored in a climate chamber till hatching after about 42 days. An efficacy of 100% means all eggs are infertile; 0% means all eggs are fertile.

[3] = system: adult unfed cat fleas (Ctenocephalides felis); experiment: Ctenocephalides felis oral test; conditions: 48 h, read-out: activity (mortality)
Experimental: Ctenocephalides felis—Oral Test
as §2
To produce a suitable preparation of active compound, 10 mg of active compound are dissolved in 0.5 mL solvent, and the concentrate is diluted with cattle blood to the desired concentration.
Approximately 20 adult unfed cat fleas (Ctenocephalides felis) are placed in flea chambers. The blood chamber, sealed with parafilm on the bottom, are filled with cattle blood supplied with compound solution and placed on the gauze covered top of the flea chamber, so that the fleas are able to suck the blood. The blood chamber is heated to 37° C. whereas the flea chamber is kept at room temperature.
After 2 days mortality in % is determined. 100% means all the fleas have been killed; 0% means none of the fleas have been killed.

[4] = system: green peach aphid (Myzus persicae); experiment: Myzus persicae oral test; conditions: 120 h, application rate 4 ppm, after 5 days
Experimental: Solvent: 100 parts by weight acetone
To produce a suitable preparation of active compound, 1 part by weight of active compound is mixed with the stated amount of solvent, and the concentrate is diluted with water to the desired concentration.
50 μL compound solution is filled in microtiter plates and 150 μL IPL41 insect medium (33%+15% sugar) is added to obtain a total volume of 200 μL per well. Afterwards the plates are sealed with parafilm through which a mixed population of the green peach aphid (Myzus persicae) can suck on the compound preparation.
After 5 days mortality in % is determined. 100% means all aphids have been killed and 0% means none of the aphids have been killed.

[5] = system: adult brown dog ticks (Rhipicephalus sanguineus); experiment: Rhipicephalus sanguineus in-vitro contact test, adult brown dog ticks; conditions: after 48 hours, read-out: activity (efficacy: ticks dead or moribund); for pest or weed control at 5 µg/cm2, 500 g/ha: application rate 5 μg/cm^2 (=500 g/ha); for pest or weed control at 100 g/ha: application rate 1 pg/cm^2 (=100 g/ha)
Experimental: Rhipicephalus sanguineus—In-Vitro Contact Tests with Adult Brown Dog Ticks
as §1
After the solvent has evaporated, each test tube is filled with 5-10 adult brown dog ticks (Rhipicephalus sanguineus), closed with a perforated lid and incubated in a lying position at room temperature and relative humidity. After 48 hours efficacy is determined. The ticks are patted on the ground of the tubes and are incubated on a heating plate at 45-50° C. for at most 5 minutes. Immotile or uncoordinated moving ticks, which are not able to escape the heat by climbing upwards, are marked as dead or moribund.
An efficacy of 100% means all ticks are dead or moribund; 0% means no ticks are dead or moribund.

[6] = system: fall armyworm larvae (Spodoptera frugiperda); experiment: Spodoptera frugiperda spray test; conditions: 168 h, read-out: activity (mortality)
Experimental: Spodoptera frugiperda—Spray Test
Solvent: 78.0 parts by weight acetone • 1.5 parts by weight dimethylformamide
(§3) Emulsifier: alkylarylpolyglycol ether
(§4) To produce a suitable preparation of active compound, 1 part by weight of active compound is mixed with the stated amount of solvents and is diluted with water, containing an emulsifier concentration of 1000 ppm, to the desired concentration. Further test concentrations are prepared by dilution with emulsifier containing water.
Maize (Zea mays) leaf sections are sprayed with a preparation of the active ingredient of the desired concentration. Once dry, the leaf sections are infested with fall armyworm larvae (Spodoptera frugiperda).
After 7 days mortality in % is determined. 100% means all caterpillars have been killed and 0% means none of the caterpillars have been killed.

[7] = system: Aedes aegypti strain MONHEIM; experiment: Aedes aegypti test (AEDSAE surface treatment & contact assay); conditions: 24 hours after contact, read-out: efficacy (mortality); for mortality at 4 mg/m2: surface concentration 4 mg/m^2, exposure 30 minutes
Experimental: Aedes aegypti Test (AEDSAE Surface Treatment & Contact Assay)
Solvent: Aceton+2000 ppm rapeseed oil methyl ester (RME)
In order to produce a sufficient, active ingredient containing solution it is necessary to solve the test compound in the solvent-mix (acetone at 2 mg/ml/RME 2000 ppm). This solution is pipetted onto a glazed tile and after evaporation of the acetone, adult mosquitoes of the species Aedes aegypti strain MONHEIM are placed onto the dried surface. The exposure time is 30 minutes. Mortality in percent (%) is determined 24 hours after contact of the insects to the treated surface. 100% mortality means that all tested insects are dead, whereas 0% means that no insect died.

[8] = system: larvae of the banded cucumber beetle (Diabrotica balteata); experiment: Diabrotica balteata spray test; conditions: 168 h, after 7 days, read-out: activity (efficacy: seedlings grown); for pest or weed control at 100 g/ha: application rate 100 g/ha (=32 pg/well)
Experimental: Diabrotica balteata—spray test
Solvent: 78.0 parts by weight of acetone • • 1.5 parts by weight of dimethylformamide
as §3
as §4, with “solvent,” for “solvents”, “and the concentrate” for “and”
Soaked wheat seeds (Triticum aestivum) are placed in a multiple well plate filled with agar and some water and are incubated for 1 day to germinate (5 seeds per well). The germinated wheat seeds are sprayed with a test solution containing the desired concentration of the active ingredient. Afterwards each unit is infected with 10-20 larvae of the banded cucumber beetle (Diabrotica balteata).
After 7 days efficacy in % is determined. 100% means all the seedlings have grown up like in the untreated, uninfected control; 0% means none of the seedlings have grown.

Compound | pest or weed control at 100 g/ha [1] | pest or weed control at 500 g/ha [1] | pest or weed control at 4 pg [2] | pest or weed control at 0.02 mg [2] | mortality at 100 ppm [3] | mortality at 4 ppm [4] | pest or weed control at 5 µg/cm2, 500 g/ha [5] | pest or weed control at 100 g/ha [5] | mortality at 100 g/ha [6] | mortality at 4 mg/m2 [7] | mortality at 20 mg/m2 ([7]; surface concentration 20 mg/m^2, exposure 30 minutes) | pest or weed control at 100 g/ha [8] | pest or weed control at 500 g/ha ([8]; application rate 500 g/ha (=160 pg/well))
CC(NC(=O)c1cc(C(F)(F)F)n(C)n1)c1nc(Cl)nn1-c1ncccn1 (centres unmarked) [I-31] | 100% | 100% | 100% | 100% | 90% | 90% |  |  |  |  |  |  | 
CC(NC(=O)c1cc(C(F)(F)F)n(C)n1)c1nc(Cl)nn1-c1ccc(C#N)cn1 (centres unmarked) [I-33] | 100% | 100% | 80% | 80% | 100% |  | 80% |  |  |  |  |  | 
CC(NC(=O)c1cc(C(F)(F)F)n(C)n1)c1nc(Br)nn1-c1ncccn1 (centres unmarked) [I-39] | 100% | 100% | 100% |  | 100% |  | 80% | 80% |  |  |  |  | 
CC(NC(=O)c1cc(Br)cc(C2(C(F)(F)F)CC2)c1)c1nc(Cl)nn1-c1ncccn1 (centres unmarked) [I-47] | 90% | 90% | 100% | 100% | 80% | 100% |  |  | 100% | 80 to 100% | 80 to 100% | 100% | 
CC(NC(=O)c1cc(Br)cc(C2(C(F)(F)F)CC2)c1)c1nc(Br)nn1-c1ncccn1 (centres unmarked) [I-48] | 90% | 90% | 100% |  | 100% | 100% |  |  | 100% |  |  |  | 
Cc1nc([C@H](C)NC(=O)c2csc(Cl)c2)n(-c2cc(C#N)ccn2)n1 [II-19] |  |  | 100% | 100% | 100% |  |  |  |  | 80 to 100% |  |  | 100%
C[C@H](NC(=O)c1cc(Cl)cc(S(C)(=O)=O)c1)c1ncnn1-c1ncc(I)s1 [II-51, 3-chloro-N-{(1S)-1-[1-(5-iodo-1,3-thiazol-2-yl)-1H-1,2,4-triazol-5-yl]ethyl}-5-(methylsulfonyl)benzamide] | 100% | 100% | 100% | 100% | 100% |  |  | 80% | 100% |  |  | 100% | 
